Test results: US20060160721A1, “Method of plasma lipidation to prevent, inhibit and/or reverse atherosclerosis” (BAYLOR COLLEGE OF MEDICINE, priority 2004, published 2006)

Test: Lipoprotein cholesterophilicity: cholesterol partitioning between lipoproteins and 2-hydroxypropyl-cyclodextrin (CDX)
Assay type: binding
Details: isolated LDL and HDL enriched with POPC by DP
Experimental: Control samples were prepared without detergent or POPC. The samples were dialyzed as described above. […] The samples were incubated for three hours and transferred to Microcon ultracentrifugal filters with an exclusion limit of 30 kDa and centrifuged for 10 min at 12,000 rpm in an Eppendorf microfuge. Aliquots of the retentate and filtrate were analyzed for cholesterol, protein, and phospholipid. The partition coefficient Kp for the distribution of cholesterol between TLP and CDX was calculated from Kp={FCBound×[[…]} Equation 1 where TLPPro is the initial TLP-protein concentration (mg/mL), […], and FCBound, respectively are the free cholesterol concentrations in the retentate, filtrate, and bound to TLP with FCBound calculated as […].

CCCCCCCC/C=C\CCCCCCCC(=O)O[C@H](COC(=O)CCCCCCCCCCCCCCC)COP(=O)([O-])OCC[N+](C)(C)C [POPC, 1-palmitoyl-2-oleoyl (PO) PC]
effect of added POPC on the cholesterophilicities of LDL and HDL: dose-dependent increase
